Experimental data taken from patent EP3086659B1, “NUTRITIONAL COMPOSITION FOR THE PREVENTION AND TREATMENT OF COPD AND RELATED SYMPTOMS” (Thompson S.r.L., priority 2013, dated 2015).
Like-named read-outs stand apart in the source and are kept apart here.

How the values were obtained:
[1] = Clinical study on volunteers: blood (serum) concentration and pharmacokinetic parameters of curcumin after oral administration; format: in vivo, healthy volunteers
Experimental: Subsequently, up to 1 h, a rapid decrease is observed followed by a gradual decline to 0 in the next three hours. The following Table lists the pharmacokinetic parameters (mean ± SEM). Table
The maximum serum concentration, when administered alone, was just 0.006 µg/ml 1 hour after administration, while in combination with piperine, the maximum serum concentration (Cmax) had increased to 0.18 µg/ml and was reached earlier at 0.75 h from the administration. The volume of distribution (Vd) and the total clearance value (CI) were not calculated for curcumin administered alone as it was not possible to determine the serum levels in most of the measurements of the greater number of subjects. […] 4 and in the preceding table reflect an increase in the bioavailability of curcumin equal to 2000% in the subjects treated with the combination of curcumin and piperine.

[2] = test system: Human alveolar epithelial cells A549; assay: Determination of intracellular glutathione (GSH and GSSG), glutathione reductase-recycling analysis; format: cell-based; conditions: different concentrations (0-50 µM), 6 hours
Experimental: Curcumin (CUR), N-acetyl-L-cysteine (NAC) and glutathione in reduced (GSH) and oxidised (GSSG) form and other reagents were supplied by Sigma. Human alveolar epithelial cells A549 were purchased from American Type Culture Collection (ATCC CCL-185). Levels of reduced (GSH) and oxidised (GSSG) Glutathione were measured after exposure of the cells for 6 hours to curcumin, NAC and curcumin and NAC association (ratio 1/1) using the method already described in Calabrese et al. 1998; Motterlini et al. 2000a). Cells harvested in cold PBS were frozen-thawed three times and an aliquot of this suspension was added to a buffer solution containing […] of EDTA and 10 mM of 5,5-dithiobis- (2-nitrobenzoic acid). The total glutathione was measured by spectroscopy (optical density of 412 nm) using the glutathione reductase-recycling analysis. In order to determine the quantity of GSSG, an aliquot of the cell suspension was added to an equal volume of buffer containing EDTA and N-ethylmaleimide (10 mM). The sample was mixed and centrifuged and the supernatant was passed through a Sep-Pak C18 cartridge (Waters, Milford, MA) to remove the excess of N-ethylmaleimide. […] Intracellular glutathione was determined by comparison with a standard curve obtained with standard solutions of GSH and GSSG and was expressed as nmoles/mg protein. […]

Nrf2 [3] = assay: Expression of Nrf2 protein in nuclear extracts (Western blot); format: cell-based, Human; conditions: 15 µM, after one hour up to 12h, three independent Western blots
Source text: Curcumin (CUR), N-acetyl-L-cysteine (NAC) and glutathione in reduced (GSH) and oxidised (GSSG) form and other reagents were supplied by Sigma. Human alveolar epithelial cells A549 were purchased from American Type Culture Collection (ATCC CCL-185). […] The combination of NAC and CUR induced a slightly higher level of Nrf2 expression.

Nrf2 [4] = assay: Nrf2 mRNA expression by quantitative real-time PCR compared to GAPDH; format: cell-based, Human; conditions: 15 µM, 6 h
Source text: (§1) Curcumin (CUR), N-acetyl-L-cysteine (NAC) and glutathione in reduced (GSH) and oxidised (GSSG) form and other reagents were supplied by Sigma. Human alveolar epithelial cells A549 were purchased from American Type Culture Collection (ATCC CCL-185). […] GRX is a key enzyme in the regulation of the cellular oxidative state, being responsible for the regeneration of GSH from GSSG and in the regeneration of dehydroascorbate.

HO-1 = HO-1 mRNA expression by quantitative real-time PCR compared to GAPDH; format: cell-based, Human; conditions: 15 µM, 6 h
Source text: as §1

[5] = test system: glutathione reductase (GRX); assay: Glutathione reductase (GRX) mRNA expression by quantitative real-time PCR compared to GAPDH; format: cell-based, Human; conditions: 15 µM, 6 h
Source text: as §1

Row | Tmax ([1]; human, 2 g, serum curcumin, oral administration, healthy volunteers (n = 8), mean ± SEM) | Cmax ([1]; human, 2 g, serum curcumin, oral administration, healthy volunteers (n = 8), mean ± SEM, read-out: Cmax) | Serum levels of curcumin ([1]; oral, 2 g of curcumin alone or with 20 mg of piperine, measurements up to 0.75 h) | Cmax ([1]; serum curcumin, oral administration, healthy volunteers (n = 8), mean ± SEM) | AUC(0-∞) ([1]; serum curcumin, oral administration, healthy volunteers (n = 8), trapezoidal method, mean ± SEM) | glutathione reductase (GRX) mRNA [5] | Structure (SMILES) | levels of GSSG [2] | intracellular GSH ([2]; dose-dependent) | expression of the protein Nrf2 in the nucleic extracts (Nrf2 [3]) | Nrf2 mRNA (Nrf2 [4]) | HO-1 mRNA (HO-1)
1 | 1 h | 6 ng/mL | very low or undetectable | 6 ± 5 ng/mL | 0.004 µg/h/mL |  | COc1cc(/C=C/C(=O)CC(=O)/C=C/c2ccc(O)c(OC)c2)ccc1O [Curcumin, (1E, 6E)-1,7-bis-(4-hydroxy-3-methoxyphenyl)-epta-1,6-dien-3,5-dione] |  |  |  |  | 
2 |  |  |  |  |  | able to induce GRX significantly | CC(=O)N[C@@H](CS)C(=O)O [NAC, N-acetyl-L-cysteine] | did not increase | increase of GSH | not able to induce an increase | not active | not active
